In patent US20260028365A1 (BIOGEN MA INC., priority 2022, published 2026) one finds IC50 data, which are given here for 13 compounds.

Each structure is given as a SMILES string.

Tyk2, sequence (P29597 whole entry): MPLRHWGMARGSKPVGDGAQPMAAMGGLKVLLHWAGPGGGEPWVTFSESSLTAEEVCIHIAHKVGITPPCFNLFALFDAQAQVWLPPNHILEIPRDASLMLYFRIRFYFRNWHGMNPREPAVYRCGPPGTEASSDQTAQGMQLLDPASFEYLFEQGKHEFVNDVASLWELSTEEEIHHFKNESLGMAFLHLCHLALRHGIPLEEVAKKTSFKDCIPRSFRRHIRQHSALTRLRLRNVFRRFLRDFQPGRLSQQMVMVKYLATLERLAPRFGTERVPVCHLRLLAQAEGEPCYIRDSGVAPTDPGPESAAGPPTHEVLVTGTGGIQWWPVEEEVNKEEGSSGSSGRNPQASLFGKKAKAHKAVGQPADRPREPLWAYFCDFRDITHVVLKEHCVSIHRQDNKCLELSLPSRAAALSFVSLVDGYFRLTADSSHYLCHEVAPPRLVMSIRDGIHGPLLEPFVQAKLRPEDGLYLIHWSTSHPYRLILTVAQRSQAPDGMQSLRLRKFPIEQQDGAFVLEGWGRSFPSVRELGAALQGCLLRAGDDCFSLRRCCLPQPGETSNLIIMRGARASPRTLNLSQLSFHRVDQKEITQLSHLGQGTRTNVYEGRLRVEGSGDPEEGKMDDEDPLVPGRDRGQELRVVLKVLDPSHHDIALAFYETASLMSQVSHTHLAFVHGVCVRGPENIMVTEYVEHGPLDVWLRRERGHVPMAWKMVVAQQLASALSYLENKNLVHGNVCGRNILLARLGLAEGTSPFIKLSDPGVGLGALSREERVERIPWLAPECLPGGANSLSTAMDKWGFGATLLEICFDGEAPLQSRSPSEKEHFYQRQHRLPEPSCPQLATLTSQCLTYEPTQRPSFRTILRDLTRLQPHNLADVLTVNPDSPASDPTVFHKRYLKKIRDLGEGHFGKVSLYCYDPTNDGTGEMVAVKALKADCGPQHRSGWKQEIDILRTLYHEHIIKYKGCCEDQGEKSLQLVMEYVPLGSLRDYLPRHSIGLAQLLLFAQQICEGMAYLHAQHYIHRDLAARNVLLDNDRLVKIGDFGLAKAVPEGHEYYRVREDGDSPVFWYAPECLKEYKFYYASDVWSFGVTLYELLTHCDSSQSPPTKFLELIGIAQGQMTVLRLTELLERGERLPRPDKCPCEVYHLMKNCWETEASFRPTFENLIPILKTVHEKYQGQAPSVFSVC

One assay concerns the target Tyk2 (Homo sapiens (Human), UniProt P29597). The assay can be described thus: pSTAT4 Cell Assay (MSD, NK92 cells). It counts as cell-based.
Conditions: not given
The procedure:
The inhibitory potency of compounds of the disclosure against the Tyk2 kinase activity on STAT4 was evaluated using an MSD-platform plate-based assay format. NK92 cells natively expressing STAT4 and Tyk2 were serum-starved to reduce background phosphorylation levels, then cells were treated compounds for 1 hr with a 10-point four-fold dilution series starting at 10 μM. Cells were then stimulated with 30 ng/mL […] for 15 minutes. […] The data were normalized and the percent activity versus log concentration of compound were fitted with a 4-parameter logistic model to generate to generate IC50 curves.
In turn, `CC(=O)Nc1cc(Nc2ccnc(C(C)(F)F)n2)c(-c2cnc(OC(F)F)cn2)cn1` [Example 854, N-(4-((2-(1,1-difluoroethyl)pyrimidin-4-yl)amino)-5-(5-(difluoromethoxy)pyrazin-2-yl)pyridin-2-yl)acetamide] returned an IC50 of 10 to 100 nM.

The compound `CCc1cc(Nc2cc(NC(C)=O)ncc2-c2nccc(CN3C[C@H]4C[C@@H]3CO4)n2)nc(C(C)(F)F)n1` [Example 907, N-(5-(4-(((1R,4R)-2-oxa-5-azabicyclo[2.2.1]heptan-5-yl)methyl)pyrimidin-2-yl)-4-((2-(1,1-difluoroethyl)-6-ethylpyrimidin-4-yl)amino)pyridin-2-yl)acetamide] registered a 50% inhibitory concentration (IC50) of 10 to 100 nM.

The assay is the same for the next values; noted with them: MSD.
Take `COCc1ccc(-c2cnc(NC(C)=O)cc2Nc2nc(C(C)(F)F)ncc2OC)nc1` [Example 589, N-(4′-((2-(1,1-difluoroethyl)-5-methoxypyrimidin-4-yl)amino)-5-(methoxymethyl)-[2,3′-bipyridin]-6′-yl)acetamide]: the IC50 is ≤ 10 nM. On to `COc1cnc(NC(C)=O)cc1Nc1cc(-c2cnc(C)s2)nc(C(C)(F)F)n1` [Example 387, N-(4-((2-(1,1-difluoroethyl)-6-(2-methylthiazol-5-yl)pyrimidin-4-yl)amino)-5-methoxypyridin-2-yl)acetamide], for which the IC50 was ≤ 10 nM. For the compound `CC(=O)Nc1cc(Nc2cc(C)nc(C(C)(F)F)n2)c(OCc2cc(C#N)ccn2)cn1` [Example 129, N-(5-((4-cyanopyridin-2-yl)methoxy)-4-((2-(1,1-difluoroethyl)-6-methylpyrimidin-4-yl)amino)pyridin-2-yl)acetamide], the IC50 lay within 10 to 100 nM. Regarding `CC(=O)Nc1cc(Nc2cc(C)nc(C(C)(F)F)n2)c(OC[C@H]2COC(C)(C)O2)cn1` [Example 124, (S)-N-(4-((2-(1,1-difluoroethyl)-6-methylpyrimidin-4-yl)amino)-5-((2,2-dimethyl-1,3-dioxolan-4-yl)methoxy)pyridin-2-yl)acetamide], the IC50 was ≤ 10 nM.

Consider `CC(=O)Nc1cc(Nc2cc(C)nc(C(C)(F)F)n2)c(OCc2ncccn2)cn1` [Example 134, N-(4-((2-(1,1-difluoroethyl)-6-methylpyrimidin-4-yl)amino)-5-(pyrimidin-2-ylmethoxy)pyridin-2-yl)acetamide], for which the IC50 was in the range of 100 to 1000 nM.

As for `CC(=O)Nc1cc(Nc2cc(C)nc(C(C)(F)F)n2)c(OCc2nnc(C)s2)cn1` [Example 118, N-(4-((2-(1,1-difluoroethyl)-6-methylpyrimidin-4-yl)amino)-5-((5-methyl-1,3,4-thiadiazol-2-yl)methoxy)pyridin-2-yl)acetamide], the IC50 lay within 10 to 100 nM. Still for that read-out and setting: for `CNC(=O)Nc1cc(Nc2cc(C)nc(C(C)(F)F)n2)c(-c2ccc(F)cn2)cn1` [Example 290, 1-(4′-((2-(1,1-difluoroethyl)-6-methylpyrimidin-4-yl)amino)-5-fluoro-[2,3′-bipyridin]-6′-yl)-3-methylurea] the value was ≤ 10 nM; for `CCCCOc1cnc(NC(C)=O)cc1Nc1cc(C)nc(C(C)(F)F)n1` [Example 105, N-(5-butoxy-4-((2-(1,1-difluoroethyl)-6-methylpyrimidin-4-yl)amino)pyridin-2-yl)acetamide], ≤ 10 nM; for `COCCOc1cc(Nc2cc(NC(C)=O)ncc2-c2ccn(C)n2)nc(C(C)(F)F)c1` [Example 210, N-(4-((6-(1,1-difluoroethyl)-4-(2-methoxyethoxy)pyridin-2-yl)amino)-5-(1-methyl-1H-pyrazol-3-yl)pyridin-2-yl)acetamide], ≤ 10 nM.

`CC(=O)Nc1cc(Nc2ccnc(C(C)(F)F)n2)c(OC2CCC2)cn1` [Example 7, N-(5-cyclobutoxy-4-((2-(1,1-difluoroethyl)pyrimidin-4-yl)amino)pyridin-2-yl)acetamide] showed an IC50 of 100 to 1000 nM. The compound `CC(=O)Nc1cc(Nc2cc(C)nc(C(C)(F)F)n2)c(OCc2csnc2C)cn1` [Example 111, N-(4-((2-(1,1-difluoroethyl)-6-methylpyrimidin-4-yl)amino)-5-((3-methylisothiazol-4-yl)methoxy)pyridin-2-yl)acetamide] displayed an IC50 of 100 to 1000 nM.
